From patent US20240158446A1, “CYCLIC COMPOUND HAVING SELECTIVE INHIBITORY ACTION ON KRAS OVER HRAS AND NRAS” (CHUGAI SEIYAKU KABUSHIKI KAISHA, priority 2021, published 2024)

Columns and labels:
[1] = molecular target: GDP-bound NRAS wild-type protein (Homo sapiens, UniProt P01111); experiment: Binding to NRAS by surface plasmon resonance (SPR), Single Cycle Kinetics; settings: for NRAS/KRAS (ratio of KD value for NRAS to KD value for KRAS): SPR, GDP-bound NRAS wild-type protein vs GDP-bound KRAS wild-type protein; for NRAS/KRAS (ratio of KD value with respect to GDP-bound NRAS wild-type protein to KD value with respect to KRAS): SPR KD ratio NRAS/KRAS, class symbols
Sequence of GDP-bound NRAS wild-type protein (P01111 whole entry): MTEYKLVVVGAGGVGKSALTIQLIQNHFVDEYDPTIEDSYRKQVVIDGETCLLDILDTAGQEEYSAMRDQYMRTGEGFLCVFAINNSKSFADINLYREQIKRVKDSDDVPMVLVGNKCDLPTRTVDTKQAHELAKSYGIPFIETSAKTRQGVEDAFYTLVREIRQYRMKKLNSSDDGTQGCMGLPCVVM

[2] = molecular target: GDP-bound HRAS wild-type protein (Homo sapiens, UniProt P01112); experiment: Binding to HRAS by surface plasmon resonance (SPR), Single Cycle Kinetics; settings: for HRAS/KRAS (ratio of KD value for HRAS to KD value for KRAS): SPR, GDP-bound HRAS wild-type protein vs GDP-bound KRAS wild-type protein; for HRAS/KRAS (ratio of KD value with respect to GDP-bound HRAS wild-type protein to KD value with respect to KRAS): SPR KD ratio HRAS/KRAS, class symbols
Sequence of GDP-bound HRAS wild-type protein (P01112 whole entry): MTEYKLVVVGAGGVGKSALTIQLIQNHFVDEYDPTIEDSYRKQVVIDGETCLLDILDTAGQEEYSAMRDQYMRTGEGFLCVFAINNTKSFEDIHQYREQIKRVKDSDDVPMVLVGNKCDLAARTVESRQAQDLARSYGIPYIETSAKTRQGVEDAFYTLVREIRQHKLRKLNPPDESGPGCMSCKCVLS

Row | Structure (SMILES) | NRAS/KRAS (ratio of KD value for NRAS to KD value for KRAS) [1] | HRAS/KRAS (ratio of KD value for HRAS to KD value for KRAS) [2] | NRAS/KRAS (ratio of KD value with respect to GDP-bound NRAS wild-type protein to KD value with respect to KRAS) [1] | HRAS/KRAS (ratio of KD value with respect to GDP-bound HRAS wild-type protein to KD value with respect to KRAS) [2]
1 | CCC[C@@H]1C[C@H]2C(=O)NC3(CCC3)C(=O)N(C)[C@@H](C3CCCC3)C(=O)N(C)[C@H](C(=O)N(C)C)CC(=O)N(C)[C@@H](CC)C(=O)N[C@@H]([C@@H](C)CC)C(=O)N(C)CC(=O)N(C)[C@H]3C/C=C\CCN(C3=O)[C@@H](Cc3ccc(C)cc3)C(=O)N(C)CC(=O)N[C@@H](CCc3cc(F)c(C(F)(F)F)c(F)c3)C(=O)N2C1 [PP2233] | A (a compound having 10 or more and less than 20 is denoted as A) | A (a compound having 10 or more and less than 20 is denoted as A) |  | 
2 | CCC[C@H]1C(=O)N[C@@H]([C@@H](C)CC)C(=O)N(C)CC(=O)N(C)[C@H]2C/C=C\CCN(C2=O)[C@@H](Cc2ccc(C)cc2)C(=O)N(C)CC(=O)N[C@@H](CCc2ccc(C(F)(F)F)c(Cl)c2)C(=O)N2C[C@H](CC)C[C@H]2C(=O)NC2(CCC2)C(=O)N(C)[C@@H](C2CCCC2)C(=O)N(C)[C@H](C(=O)N(C)C)CC(=O)N1C [PP2237] | A (a compound having 10 or more and less than 20 is denoted as A) | A (a compound having 10 or more and less than 20 is denoted as A) |  | 
3 | CCC[C@H]1C(=O)N[C@@H](C2CCC2)C(=O)N(C)CC(=O)N(C)[C@H]2C/C=C\CCN(C2=O)[C@@H](Cc2ccc(C)cc2)C(=O)N(C)CC(=O)N[C@@H](CCc2ccc(C(F)(F)F)c(F)c2)C(=O)N2C[C@H](OCC)C[C@H]2C(=O)NC2(CC(C)(C)C2)C(=O)N(C)[C@@H](C2CCC2)C(=O)N(C)[C@H](C(=O)N(C)C)CC(=O)N1C [PP2242] | A (a compound having 10 or more and less than 20 is denoted as A) | A (a compound having 10 or more and less than 20 is denoted as A) |  | 
4 | CCO[C@@H]1C[C@H]2C(=O)NC3(CCC3)C(=O)N(C)[C@@H](C3CCCC3)C(=O)N(C)[C@H](C(=O)N(C)CC)CC(=O)N(C)[C@H]3CCCCCCc4ccc(cc4)C[C@@H](C(=O)N(C)CC(=O)N[C@@H](CCc4ccc(C(F)(F)F)c(OC)c4)C(=O)N2C1)N1CC/C=C\C[C@@H](C1=O)N(C)C(=O)CN(C)C(=O)[C@H]([C@@H](C)CC)NC3=O [PP2263] | A (a compound having 10 or more and less than 20 is denoted as A) | A (a compound having 10 or more and less than 20 is denoted as A) |  | 
5 | CCOC[C@H]1C(=O)N[C@@H]([C@@H](C)CC)C(=O)N(C2CC2)CC(=O)N(C)[C@H]2C/C=C\CCN(C2=O)[C@@H](Cc2ccc(C(F)(F)F)cc2)C(=O)N(C)CC(=O)N[C@@H](CCc2ccc(C(F)(F)F)c(OC)c2)C(=O)N2C[C@H](OCC)C[C@H]2C(=O)N(C)C2(CCC2)C(=O)N(C)[C@@H](C(CC)CC)C(=O)N(C)[C@H](C(=O)N(C)C)CC(=O)N1C [PP2315] | A (a compound having 10 or more and less than 20 is denoted as A) | A (a compound having 10 or more and less than 20 is denoted as A) |  | 
6 | CCCOC[C@H]1C(=O)N[C@@H]([C@@H](C)CC)C(=O)N(C2CC2)CC(=O)N(C)[C@H]2C/C=C\CCN(C2=O)[C@@H](Cc2ccc(C(F)(F)F)cc2)C(=O)N(C)CC(=O)N[C@@H](CCc2ccc(C(F)(F)F)c(OC)c2)C(=O)N2C[C@H](OCC)C[C@H]2C(=O)N(C)C2(CCC2)C(=O)N(C)[C@@H](C2CCCC2)C(=O)N(C)[C@H](C(=O)N(C)C)CC(=O)N1C [PP2318] | A (a compound having 10 or more and less than 20 is denoted as A) | A (a compound having 10 or more and less than 20 is denoted as A) |  | 
7 | CCCOC[C@H]1C(=O)N[C@@H]([C@@H](C)CC)C(=O)N(C)CC(=O)N(C)[C@H]2C/C=C\CCN(C2=O)[C@@H](Cc2ccc(C)cc2)C(=O)N(C)CC(=O)N[C@@H](CCc2ccc(C(F)(F)F)c(OC)c2)C(=O)N2C[C@H](OCC)C[C@H]2C(=O)N(C)C2(CCC2)C(=O)N(C)[C@@H](C(CC)CC)C(=O)N(C)[C@H](C(=O)N(C)C)CC(=O)N1C [PP2323] | A (a compound having 10 or more and less than 20 is denoted as A) | A (a compound having 10 or more and less than 20 is denoted as A) |  | 
8 | CCC[C@H]1C(=O)N[C@@H]([C@@H](C)CC)C(=O)N(C2CC2)CC(=O)N(C)[C@H]2C/C=C\CCN(C2=O)[C@@H](Cc2ccc(C)cc2)C(=O)N(C)CC(=O)N[C@@H](CCc2ccc(C(F)(F)F)c(OC)c2)C(=O)N2C[C@H](OCC)C[C@H]2C(=O)N(C)C2(CCC2)C(=O)N(C)[C@@H](C(CC)CC)C(=O)N(C)[C@H](C(=O)N(C)C)CC(=O)N1C [PP2325] | A (a compound having 10 or more and less than 20 is denoted as A) | A (a compound having 10 or more and less than 20 is denoted as A) |  | 
9 | CCCOC[C@H]1C(=O)N[C@@H]([C@@H](C)CC)C(=O)N(C)CC(=O)N(C)[C@H]2C/C=C\CCN(C2=O)[C@@H](Cc2ccc(C)cc2)C(=O)N(C)CC(=O)N[C@@H](CCc2ccc(C(F)(F)F)c(OC)c2)C(=O)N2C[C@H](OCC)C[C@H]2C(=O)N(C)C2(CCC2)C(=O)N(C)[C@@H](C2CCCC2)C(=O)N(C)[C@H](C(=O)N(C)C)CC(=O)N1C [PP2326] | A (a compound having 10 or more and less than 20 is denoted as A) | B (a compound having 3 or more and less than 10 is denoted as B) |  | 
10 | CCC[C@H]1C(=O)N[C@@H]([C@@H](C)CC)C(=O)N(C2CC2)CC(=O)N(C)[C@H]2C/C=C\CCN(C2=O)[C@@H](CC2CCCCC2)C(=O)N(C)CC(=O)N[C@@H](CCc2ccc(C(F)(F)F)c(OC)c2)C(=O)N2C[C@H](OCC)C[C@H]2C(=O)N(C)C2(CCC2)C(=O)N(C)[C@@H](C2CCCC2)C(=O)N(C)[C@H](C(=O)N(C)C)CC(=O)N1C [PP2340] | B (a compound having 3 or more and less than 10 is denoted as B) | B (a compound having 3 or more and less than 10 is denoted as B) |  | 
11 | CCOC[C@H]1C(=O)N[C@@H]([C@@H](C)CC)C(=O)N(C2CC2)CC(=O)N(C)[C@H]2C/C=C\CCN(C2=O)[C@@H](CC2CCCCC2)C(=O)N(C)CC(=O)N[C@@H](CCc2ccc(C(F)(F)F)c(OC)c2)C(=O)N2C[C@H](OCC)C[C@H]2C(=O)N(C)C2(CCC2)C(=O)N(C)[C@@H](C2CCCC2)C(=O)N(C)[C@H](C(=O)N(C)C)CC(=O)N1C [PP2342] | A (a compound having 10 or more and less than 20 is denoted as A) | A (a compound having 10 or more and less than 20 is denoted as A) |  | 
12 | CCOC[C@H]1C(=O)N[C@@H]([C@@H](C)CC)C(=O)N(C2CC2)CC(=O)N(C)[C@H]2C/C=C\CCN(C2=O)[C@@H](CC2CCC(F)(F)CC2)C(=O)N(C)CC(=O)N[C@@H](CCc2ccc(C(F)(F)F)c(OC)c2)C(=O)N2C[C@H](OCC)C[C@H]2C(=O)N(C)C2(CCC2)C(=O)N(C)[C@@H](C(CC)CC)C(=O)N(C)[C@H](C(=O)N(C)C)CC(=O)N1C [PP2351] | A (a compound having 10 or more and less than 20 is denoted as A) | A (a compound having 10 or more and less than 20 is denoted as A) |  | 
13 | CCCOC[C@H]1C(=O)N[C@@H]([C@@H](C)CC)C(=O)N(C2CC2)CC(=O)N(C)[C@H]2C/C=C\CCN(C2=O)[C@@H](CC2CCC(F)(F)CC2)C(=O)N(C)CC(=O)N[C@@H](CCc2ccc(C(F)(F)F)c(OC)c2)C(=O)N2C[C@H](OCC)C[C@H]2C(=O)N(C)C2(CCC2)C(=O)N(C)[C@@H](C2CCCC2)C(=O)N(C)[C@H](C(=O)N(C)C)CC(=O)N1C [PP2354] | A (a compound having 10 or more and less than 20 is denoted as A) | A (a compound having 10 or more and less than 20 is denoted as A) |  | 
14 | CCO[C@@H]1C[C@H]2C(=O)NC3(CC(C)(C)C3)C(=O)N(C)[C@@H](C(CC)CC)C(=O)N(C)[C@H](C(=O)N(C)C)CC(=O)N(C)[C@H]3CC/C=C/c4ccc(cc4)C[C@@H](C(=O)N(C)CC(=O)N[C@@H](CCc4cc(F)c(C(F)(F)F)c(F)c4)C(=O)N2C1)N1CC/C=C\C[C@@H](C1=O)N(C)C(=O)CN(C)C(=O)[C@H]([C@@H](C)CC)NC3=O [PP2586] |  |  | A (a compound having 10 or more and less than 20 is denoted as A) | B (a compound having 3 or more and less than 10 is denoted as B)
15 | CCO[C@@H]1C[C@H]2C(=O)NC3(CC(C)(C)C3)C(=O)N(C)[C@@H](C(CC)CC)C(=O)N(C)[C@H](C(=O)N(C)C)CC(=O)N(C)[C@H]3CC/C=C/c4ccc(cc4)C[C@@H](C(=O)N(C)CC(=O)N[C@@H](CCc4ccc(Cl)c(Cl)c4)C(=O)N2C1)N1CC/C=C\C[C@@H](C1=O)N(C)C(=O)CN(C)C(=O)[C@H]([C@@H](C)CC)NC3=O [PP2589] |  |  | AA (a compound having 20 or more is denoted as AA) | A (a compound having 10 or more and less than 20 is denoted as A)
16 | CCO[C@@H]1C[C@H]2C(=O)NC3(CC(C)(C)C3)C(=O)N(C)[C@@H](C3CCCC3)C(=O)N(C)[C@H](C(=O)N(C)CC)CC(=O)N(C)[C@H]3CC/C=C/c4ccc(cc4)C[C@@H](C(=O)N(C)CC(=O)N[C@@H](CCc4ccc(Cl)c(Cl)c4)C(=O)N2C1)N1CC/C=C\C[C@@H](C1=O)N(C)C(=O)CN(C1CC1)C(=O)[C@H]([C@@H](C)CC)NC3=O [PP2598] |  |  | A (a compound having 10 or more and less than 20 is denoted as A) | A (a compound having 10 or more and less than 20 is denoted as A)
